# Assay results taken from patent US20160002267A1, “BENZYL-SUBSTITUTED PYRAZOLOPYRIDINES AND USE THEREOF” (BAYER PHARMA AKTIENGESELLSCHAFT, priority 2013, published 2016).
# Tested on: conscious spontaneously hypertensive rats
# Test: Radiotelemetric measurement of blood pressure on conscious spontaneously hypertensive rats
# Format: in vivo, rat
# Conditions: SHR
# Text: A commercially available telemetry system from DATA SCIENCES INTERNATIONAL DSI, USA, is employed for the blood pressure measurement on conscious rats described below.
# The system consists of 3 main components: • implantable transmitters (Physiotel® telemetry transmitter) • receivers (Physiotel® receiver) which are linked via a multiplexer (DSI Data Exchange Matrix) to a • data acquisition computer.
# The telemetry system makes it possible to continuously record blood pressure, heart rate and body motion of conscious animals in their usual habitat.
# The investigations are carried out on adult female spontaneously hypertensive rats (SHR Okamoto) with a body weight of >200 g. SHR/NCrl from the Okamoto Kyoto School of Medicine, 1963 were a cross of male Wistar Kyoto rats with highly elevated blood pressure and female rats having a slightly elevated blood pressure and at F13 handed over to the U.S. National Institutes of Health.
# After transmitter implantation, the experimental animals are housed singly in type 3 Makrolon cages. They have free access to standard feed and water.
# The day/night rhythm in the experimental laboratory is changed by the room lighting at 6.00 am and at 7.00 pm.
# The telemetry transmitters TA11 PA-C40 used are surgically implanted under aseptic conditions in the experimental animals at least 14 days before the first experimental use. The animals instrumented in this way can be employed repeatedly after the wound has healed and the implant has settled.
# Initiation of anaesthesia gas O2+N2O […] with 5% isofluran in a through-flow vessel.
# After the anaesthesia has been initiated, the animal is connected to the anaesthesia mask on a thermal plate and receives 1.8% isofluran for anaesthesia maintenance and is shaved and disinfected over a large area of its abdomen. After the abdominal cavity has been opened along the linea alba, the liquid-filled measuring catheter of the system is inserted into the descending aorta in the cranial direction above the bifurcation and fixed with tissue glue (VetBonD™, 3M). The transmitter housing is fixed intraperitoneally to the abdominal wall muscle, and layered closure of the wound is performed.
# An antibiotic (Oxytetracyclin® 10%, 60 mg/kg s.c., 0.06 ml/100 g body weight, Beta-Pharma GmbH & Co, Germany) and an analgesic (Rimadyl®, 4 mg/kg s.c., Pfizer, Germany) are administered postoperatively for prophylaxis of infection.
# Unless indicated otherwise, the substances to be investigated are administered orally by gavage in each case to a group of animals (n=6). The test substances are dissolved in suitable solvent mixtures, or suspended in 0.5% strength Tylose, appropriate for an administration volume of 2 ml/kg of body weight.
# A solvent-treated group of animals is employed as control.
# The telemetry measuring unit present is configured for 24 animals. Each experiment is recorded under an experiment number (Vyear month day).
# Each of the instrumented rats living in the system is assigned a separate receiving antenna (1010 Receiver, DSI).
# The implanted transmitters can be activated externally by means of an incorporated magnetic switch and are switched to transmission in the run-up to the experiment. The signals emitted can be detected online by a data acquisition system (Dataquest™ A.R.T. for WINDOWS, DSI) and processed accordingly. The data are stored in each case in a file created for this purpose and bearing the experiment number.
# In the standard procedure, the following are measured for 10-second periods in each case: • systolic blood pressure (SBP) • diastolic blood pressure (DBP) • mean arterial pressure (MAP) • heart rate (HR) • activity (ACT).
# The acquisition of measurements is repeated under computer control at 5-minute intervals. The source data obtained as absolute value are corrected in the diagram with the currently measured barometric pressure (Ambient Pressure Reference Monitor; APR-1) and stored as individual data. […]
smiles,measurement,setting,value
"CC1(C(F)(F)F)C(=O)Nc2nc(-c3nn(Cc4ccccc4F)c4ncc(F)cc34)nc(NCCC(F)(F)F)c21 (single isomer, unassigned) [Example 1-1, 2-[5-Fluoro-1-(2-fluorobenzyl)-1H-pyrazolo[3,4-b]pyridin-3-yl]-5-methyl-5-(trifluoromethyl)-4-[(3,3,3-trifluoropropyl)amino]-5,7-dihydro-6H-pyrrolo[2,3-d]pyrimidin-6-one]",Mean blood pressure,"0.03 mg/kg, 0 hours after administration of substance",140.3 mmHg
same,Mean blood pressure,"0.03 mg/kg, 1 hours after administration of substance",124.4 mmHg
same,Mean blood pressure,"0.03 mg/kg, 2 hours after administration of substance",125.2 mmHg
same,Mean blood pressure,"0.03 mg/kg, 3 hours after administration of substance",120.6 mmHg
same,Mean blood pressure,"0.03 mg/kg, 4 hours after administration of substance",124.2 mmHg
same,Mean blood pressure,"0.03 mg/kg, 5 hours after administration of substance",119.2 mmHg
same,Mean blood pressure,"0.03 mg/kg, 6 hours after administration of substance",122.4 mmHg
same,Mean blood pressure,"0.03 mg/kg, 7 hours after administration of substance",124.8 mmHg
same,Mean blood pressure,"0.03 mg/kg, 8 hours after administration of substance",129.0 mmHg
same,Mean blood pressure,"0.03 mg/kg, 9 hours after administration of substance",132.2 mmHg
same,Mean blood pressure,"0.03 mg/kg, 10 hours after administration of substance",126.0 mmHg
same,Mean blood pressure,"0.03 mg/kg, 11 hours after administration of substance",119.8 mmHg
same,Mean blood pressure,"0.03 mg/kg, 12 hours after administration of substance",134.4 mmHg
same,Mean blood pressure,"0.03 mg/kg, 13 hours after administration of substance",130.0 mmHg
same,Mean blood pressure,"0.03 mg/kg, 14 hours after administration of substance",131.4 mmHg
same,Mean blood pressure,"0.03 mg/kg, 15 hours after administration of substance",133.6 mmHg
same,Mean blood pressure,"0.03 mg/kg, 16 hours after administration of substance",120.6 mmHg
same,Mean blood pressure,"0.03 mg/kg, 17 hours after administration of substance",135.4 mmHg
same,Mean blood pressure,"0.03 mg/kg, 18 hours after administration of substance",131.6 mmHg
same,Mean blood pressure,"0.03 mg/kg, 19 hours after administration of substance",123.2 mmHg
same,Mean blood pressure,"0.03 mg/kg, 20 hours after administration of substance",123.4 mmHg
same,Mean blood pressure,"0.03 mg/kg, 21 hours after administration of substance",125.4 mmHg
same,Mean blood pressure,"0.03 mg/kg, 22 hours after administration of substance",134.2 mmHg
same,Mean blood pressure,"0.03 mg/kg, 23 hours after administration of substance",132.0 mmHg
same,Mean blood pressure,"0.03 mg/kg, 24 hours after administration of substance",126.8 mmHg
same,Mean blood pressure,"0.3 mg/kg p.o., 0 hours after administration of substance",144.2 mmHg
same,Mean blood pressure,"0.3 mg/kg p.o., 1 hours after administration of substance",128.5 mmHg
same,Mean blood pressure,"0.3 mg/kg p.o., 2 hours after administration of substance",116.7 mmHg
same,Mean blood pressure,"0.3 mg/kg p.o., 3 hours after administration of substance",112.8 mmHg
same,Mean blood pressure,"0.3 mg/kg p.o., 4 hours after administration of substance",114.3 mmHg
same,Mean blood pressure,"0.3 mg/kg p.o., 5 hours after administration of substance",109.3 mmHg
same,Mean blood pressure,"0.3 mg/kg p.o., 6 hours after administration of substance",110.2 mmHg
same,Mean blood pressure,"0.3 mg/kg p.o., 7 hours after administration of substance",113.5 mmHg
same,Mean blood pressure,"0.3 mg/kg p.o., 8 hours after administration of substance",114.2 mmHg
same,Mean blood pressure,"0.3 mg/kg p.o., 9 hours after administration of substance",114.5 mmHg
same,Mean blood pressure,"0.3 mg/kg p.o., 10 hours after administration of substance",109.5 mmHg
same,Mean blood pressure,"0.3 mg/kg p.o., 11 hours after administration of substance",118.2 mmHg
same,Mean blood pressure,"0.3 mg/kg p.o., 12 hours after administration of substance",110.5 mmHg
same,Mean blood pressure,"0.3 mg/kg p.o., 13 hours after administration of substance",115.5 mmHg
same,Mean blood pressure,"0.3 mg/kg p.o., 14 hours after administration of substance",117.8 mmHg
same,Mean blood pressure,"0.3 mg/kg p.o., 15 hours after administration of substance",114.5 mmHg
same,Mean blood pressure,"0.3 mg/kg p.o., 16 hours after administration of substance",118.2 mmHg
same,Mean blood pressure,"0.3 mg/kg p.o., 17 hours after administration of substance",122.7 mmHg
same,Mean blood pressure,"0.3 mg/kg p.o., 18 hours after administration of substance",127.8 mmHg
same,Mean blood pressure,"0.3 mg/kg p.o., 19 hours after administration of substance",121.0 mmHg
same,Mean blood pressure,"0.3 mg/kg p.o., 20 hours after administration of substance",110.5 mmHg
same,Mean blood pressure,"0.3 mg/kg p.o., 21 hours after administration of substance",113.3 mmHg
same,Mean blood pressure,"0.3 mg/kg p.o., 22 hours after administration of substance",116.7 mmHg
same,Mean blood pressure,"0.3 mg/kg p.o., 23 hours after administration of substance",115.7 mmHg
same,Mean blood pressure,"0.3 mg/kg p.o., 24 hours after administration of substance",123.7 mmHg
